Measured values: PMC3762829 (PLoS ONE, 2013)
Where “and” joins values, the source holds several entries; their conditions need not be identical. Equal entries are not always repeated. Where two headings read alike, the source gives them in different places.

Key:
platelets = tested on: platelets
Excerpt: Platelet rich plasma was obtained from the supernatant resulting from the centrifugation of blood at 200 g at room temperature.

hemoglobin = tested on: hemoglobin; design: method as in PMID 14568007; conditions: cited from earlier work
[1] = tested on: MG-mediated HSA glycation; conditions: 14 days
Excerpt: The % inhibition of AGEs formation = [1 −(fluorescence of the test group/fluorescence of the control group)] × 100.

HSA glycation by DHA = type: biochemical, human; conditions: HSA + 20 mM DHA
Excerpt: The method of Rahbar et al., was followed with slight modifications for the determination of percent of AGEs formed [26].

[2] = tested on: HbA1C formation (hemoglobin); assay: Hemoglobin-δ-gluconolactone (δ-Glu) assay, early stage glycation; type: biochemical, human
Protocol: The Hemoglobin-δ-gluconolactone (δ-Glu) assay was performed as per previously published procedure. All the blood samples were analyzed in triplicates. The percent inhibition of HbA1C formation by the compound was calculated by: (B-C)/(B-A)X100, where A is HbA1C concentration in the baseline control tube not treated with δ-Glu, B is the HbA1C content of the test tube treated with δ-Glu, and C is the HbA1C levels in the sample treated with both δ-Glu and the compound under study.

[3] = tested on: GK peptide cross linking in the presence of ribose; assay: N-acetyl-glycyl-lysine methyl ester (GK peptide)-ribose assay, late glycation products; type: biochemical
Protocol: GK-peptide-ribose assay was performed with slight modifications from the previously published method. […] The fluorescence of the mixture was read at 340 nm excitation wavelength and 420 nm emission wavelengths using a Shimadzu RF-5301 spectrofluorometer.

## N=C(N)NN [AG, aminoguanidine]
platelets; 10 mM, incubation time 0 min
  total lactate dehydrogenase released in the incubation medium: 0±0.000%
platelets; 10 mM, incubation time 30 min
  total lactate dehydrogenase released in the incubation medium: 2.86±0.413%
platelets; 10 mM, incubation time 60 min
  total lactate dehydrogenase released in the incubation medium: 4.23±0.432%
platelets; 10 mM, incubation time 90 min
  total lactate dehydrogenase released in the incubation medium: 5.81±0.134%
platelets; 10 mM, incubation time 120 min
  total lactate dehydrogenase released in the incubation medium: 6.63±0.232%
hemoglobin
  effect on hemoglobin glycation: no significant effect
[1]; 10 mM, 40 mM MG, 37°C
  inhibition of MG-catalysed HSA glycation: 49%
HSA glycation by DHA; 10 mM
  inhibition of fluorescence associated with AGE product formation: 70.1%
[2]; 10 mM
  inhibition in the formation of HbA1c: 15%
[3]; 10 mM
  inhibition of late glycation products: 60%

## CN(C)C(=N)N=C(N)N [MF, metformin]
platelets; 200 µM
  cytotoxicity (LDH leakage), in words: not cytotoxic
platelets; 200 µM, incubation time 0 min
  total lactate dehydrogenase released in the incubation medium: 0±0.000%
platelets; 200 µM, incubation time 30 min
  total lactate dehydrogenase released in the incubation medium: 1.23±0.232%
platelets; 200 µM, incubation time 60 min
  total lactate dehydrogenase released in the incubation medium: 2.23±0.331%
platelets; 200 µM, incubation time 90 min
  total lactate dehydrogenase released in the incubation medium: 3.56±0.237%
platelets; 200 µM, incubation time 120 min
  total lactate dehydrogenase released in the incubation medium: 4.23% and 4.23±0.352%
platelets; 225 µM, incubation time 120 min
  total lactate dehydrogenase released in the incubation medium: 4.51±0.312%
platelets; 250 µM, incubation time 120 min
  total lactate dehydrogenase released in the incubation medium: 5.63±0.563%
platelets; 300 µM, incubation time 120 min
  total lactate dehydrogenase released in the incubation medium: 6.37±0.349%
platelets; above 200 µM
  cytotoxicity (LDH leakage), in words: highly cytotoxic
[2]; 10 µM
  inhibition in the formation of HbA1c: 11.6%
[2]; 100 µM
  inhibition in the formation of HbA1c: 17.1%
[2]; 500 µM
  inhibition in the formation of HbA1c: 23.3%
[2]; 1000 µM, simultaneous incubation
  inhibition in the formation of HbA1c: 28.1%
[2]; pre-incubation of fresh blood with 1000 µM for 24 h, then δ-gluconolactone
  inhibition of the formation of fluorescent products: 30.3%
[3]; 200 µM, 14 day period
  inhibition of late glycation end products: 66%

## Cc1ncc(CO)c(CN)c1O [PM, pyridoxamine]
platelets; human, 0 min, 20 mM
  total lactate dehydrogenase released in the incubation medium: 0±0.000%
platelets; human, 30 min, 20 mM
  total lactate dehydrogenase released in the incubation medium: 1.23±0.235%
platelets; human, 60 min, 20 mM
  total lactate dehydrogenase released in the incubation medium: 2.11±0.230%
platelets; human, 90 min, 20 mM
  total lactate dehydrogenase released in the incubation medium: 3.23±0.212%
platelets; human, 120 min, 22 mM
  total lactate dehydrogenase released in the incubation medium: 3.92±0.683%
platelets; human, 120 min, 25 mM
  total lactate dehydrogenase released in the incubation medium: 4.14±0.334%
[1]; human, 10 mM, pH 7.4
  inhibition of MG-catalysed HSA glycation: 54%
[1]; human, 20 mM, pH 7.4
  inhibition of MG-catalysed HSA glycation: 69%
HSA glycation by DHA; 20 mM
  inhibition of post-Amadori glycation and AGE formation: 78.4%
[2]; 1 mM
  inhibition in the formation of HbA1c: 9.1%
[2]; 5 mM
  inhibition in the formation of HbA1c: 20.4%
[2]; 10 mM
  inhibition in the formation of HbA1c: 29.3%
[2]; 20 mM
  inhibition in the formation of HbA1c: 41.1%
[2]; pre-incubation of fresh blood with 20 mM for 24 h, then δ-gluconolactone
  inhibition of the formation of fluorescent products: 47%
[2]; simultaneous incubation of whole blood, δ-gluconolactone and 10 mM (so in the source), data not shown
  inhibition of the formation of fluorescent products: 41%
[3]; 20 mM
  inhibition of late glycation end products: 79%
